Test results: US12187702B2, “Sulfonamideurea compounds” (Inflazome Limited, priority 2018, dated 2025)
Counter-ions that a name gives are not always drawn.

biological target: NLRP3 (Homo sapiens, UniProt Q96P20); assay: THP-1 cells pyroptosis assay (LPS + nigericin, resazurin read-out); assay type: cell-based; parameters: Seed THP-1 cells (25,000 cells/well) containing 1.0 μg/ml LPS; host or cells: THP-1 cells; settings: THP-1 cells, 1 μg/ml LPS, 5 μM nigericin; NLRP3 inhibitory activity; read-out: THP IC50
Description: THP-1 cells (ATCC #TIB-202) were grown in RPMI containing L-glutamine (Gibco #11835) supplemented with 1 mM sodium pyruvate (Sigma #S8636) and penicillin (100 units/ml)/streptomycin (0.1 mg/ml) (Sigma #P4333) in 10% Fetal Bovine Serum (FBS) (Sigma #F0804). The cells were routinely passaged and grown to confluency (˜10^6 cells/ml). On the day of the experiment, THP-1 cells were harvested and resuspended into RPMI medium (without FBS). The cells were then counted and viability (>90%) checked by Trypan blue (Sigma #T8154). Appropriate dilutions were made to give a concentration of 625,000 cells/ml. To this diluted cell solution was added LPS (Sigma #L4524) to give a 1 μg/ml Final Assay Concentration (FAC). 40 μl of the final preparation was aliquoted into each well of a 96-well plate. The plate thus prepared was used for compound screening.
The following method step-by-step assay was followed for compound screening. • 1. Seed THP-1 cells (25,000 cells/well) containing 1.0 μg/ml LPS in 40 μl of RPMI medium (without FBS) in 96-well, black walled, clear bottom cell culture plates coated with poly-D-lysine (VWR #734-0317) • 2. Add 5 μl compound (8 points half-log dilution, with 10 μM top dose) or vehicle (DMSO 0.1% FAC) to the appropriate wells • 3. Incubate for 3 hrs at 37° C., 5% CO2 • 4. Add 5 μl nigericin (Sigma #N7143) (FAC 5 μM) to all wells • 5. Incubate for 1 hr at 37° C., 5% CO2 • 6. At the end of the incubation period, spin plates at 300×g for 3 mins and remove supernatant • 7. Then add 50 μl of resazurin (Sigma #R7017) (FAC 100 μM resazurin in RPMI medium without FBS) and incubate plates for a further 1-2 hrs at 37° C. and 5% CO2 • 8. Plates were read in an Envision reader at Ex 560 nm and Em 590 nm • 9. IC50 data is fitted to a non-linear regression equation (log inhibitor vs response-variable slope 4-parameters)

NLRP3, sequence (Q96P20 whole entry): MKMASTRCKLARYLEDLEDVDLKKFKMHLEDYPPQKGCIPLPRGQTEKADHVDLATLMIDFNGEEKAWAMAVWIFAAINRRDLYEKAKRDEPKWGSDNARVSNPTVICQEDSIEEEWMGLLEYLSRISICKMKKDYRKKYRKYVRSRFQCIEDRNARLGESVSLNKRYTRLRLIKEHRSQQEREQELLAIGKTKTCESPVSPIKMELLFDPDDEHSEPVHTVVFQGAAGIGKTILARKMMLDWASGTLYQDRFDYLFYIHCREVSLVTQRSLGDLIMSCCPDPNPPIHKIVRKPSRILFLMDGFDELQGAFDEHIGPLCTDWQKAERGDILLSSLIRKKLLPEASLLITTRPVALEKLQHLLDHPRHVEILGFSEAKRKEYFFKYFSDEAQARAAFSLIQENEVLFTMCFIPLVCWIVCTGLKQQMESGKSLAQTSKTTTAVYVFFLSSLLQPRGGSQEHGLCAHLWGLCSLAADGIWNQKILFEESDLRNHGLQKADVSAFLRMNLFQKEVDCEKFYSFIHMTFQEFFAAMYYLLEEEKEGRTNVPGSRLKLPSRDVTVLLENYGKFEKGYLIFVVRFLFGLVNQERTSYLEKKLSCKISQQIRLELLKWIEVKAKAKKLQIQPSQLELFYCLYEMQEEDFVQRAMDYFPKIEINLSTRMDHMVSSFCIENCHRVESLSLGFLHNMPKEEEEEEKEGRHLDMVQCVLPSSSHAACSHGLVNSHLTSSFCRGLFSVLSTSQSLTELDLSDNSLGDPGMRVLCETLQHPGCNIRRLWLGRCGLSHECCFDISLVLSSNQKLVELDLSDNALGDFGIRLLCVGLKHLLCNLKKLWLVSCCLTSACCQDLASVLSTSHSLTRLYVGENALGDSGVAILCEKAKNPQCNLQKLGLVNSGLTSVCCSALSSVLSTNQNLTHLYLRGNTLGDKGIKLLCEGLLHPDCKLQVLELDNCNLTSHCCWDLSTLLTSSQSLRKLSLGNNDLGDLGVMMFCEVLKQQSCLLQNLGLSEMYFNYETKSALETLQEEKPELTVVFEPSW

| IC50 [µM] | Compound |
| --- | --- |
| < 1 | CN(C)C1CN(S(=O)(=O)NC(=O)Nc2c3c(cc4c2CCC4)CCC3)C1 [Example 17, 3-(Dimethylamino)-N-((1,2,3,5,6,7-hexahydro-s-indacen-4-yl)carbamoyl)azetidine-1-sulfonamide, potassium salt] |
| < 1 | CC(CN(C)C)N(C)S(=O)(=O)NC(=O)Nc1c2c(cc3c1CCC3)CCC2 (centres unmarked) [Example 27, 3-(N-(1-(dimethylamino)propan-2-yl)-N-methyl)sulfamoyl)-1-(1,2,3,5,6,7-hexahydro-s-indacen-4-yl)urea, potassium salt] |
| < 5 | CC(C)c1cc(F)cc(-c2ccnc(C#N)c2)c1NC(=O)NS(=O)(=O)N(C)C1CCN(C)C1 (centres unmarked) [Example 101] |
| < 1 | CN1CC(CNS(=O)(=O)NC(=O)Nc2c3c(cc4c2CCC4)CCC3)C1 [Example 69, 3-(N-((1-Methylazetidin-3-yl)methyl)sulfamoyl)-1-(1,2,3,5,6,7-hexahydro-s-indacen-4-yl)urea, potassium salt] |
| < 5 | CCN(CC)CCN(CC)S(=O)(=O)NC(=O)Nc1c2c(cc3c1CCC3)CCC2 [Example 18, 3-(N-(2-(Diethylamino)ethyl)-N-ethylsulfamoyl)-1-(1,2,3,5,6,7-hexahydro-s-indacen-4-yl)urea, potassium salt] |
| < 5 | CC(C)CN(CCN(C)C)S(=O)(=O)NC(=O)Nc1c2c(cc3c1CCC3)CCC2 [Example 12, 3-(N-(2-(Dimethylamino)ethyl)-N-isobutylsulfamoyl)-1-(1,2,3,5,6,7-hexahydro-s-indacen-4-yl)urea, potassium salt] |
| < 5 | CN(C)C(C)(C)CNS(=O)(=O)NC(=O)Nc1c2c(cc3c1CCC3)CCC2 [Example 57, 3-(N-(2-(Dimethylamino)-2-methylpropyl)sulfamoyl)-1-(1,2,3,5,6,7-hexahydro-s-indacen-4-yl)urea, potassium salt] |
| < 5 | O=C(Nc1c2c(cc3c1CCC3)CCC2)NS(=O)(=O)NCCCCO [Example 54, 3-((N-(4-Hydroxybutyl))sulfamoyl)-1-(1,2,3,5,6,7-hexahydro-s-indacen-4-yl)urea, potassium salt] |
| < 5 | CC(C)c1cc(F)cc(-c2ccnc(C#N)c2)c1NC(=O)NS(=O)(=O)N(C)CC1CCCN1C (centres unmarked) [Example 102] |
| < 1 | Cn1ccc(NS(=O)(=O)NC(=O)Nc2c3c(cc4c2CCC4)CCC3)n1 [Example 55, 3-((N-(1-Methyl-1H-pyrazol-3-yl))sulfamoyl)-1-(1,2,3,5,6,7-hexahydro-s-indacen-4-yl)urea, potassium salt] |
| < 10 | O=C1Cc2cc(NS(=O)(=O)NC(=O)Nc3c4c(cc5c3CCC5)CCC4)ccc2N1 [Example 24, 3-(N-(2-Oxoindolin-5-yl)sulfamoyl)-1-(1,2,3,5,6,7-hexahydro-s-indacen-4-yl)urea, potassium salt] |
| < 5 | CN(C)CC(C)(C)NS(=O)(=O)NC(=O)Nc1c2c(cc3c1CCC3)CCC2 [Example 59, 3-(N-(1-(Dimethylamino)-2-methylpropan-2-yl)sulfamoyl)-1-(1,2,3,5,6,7-hexahydro-s-indacen-4-yl)urea, potassium salt] |
| < 5 | CNCCN(C)S(=O)(=O)NC(=O)Nc1c2c(cc3c1CCC3)CCC2 [Example 32, 3-(N-Methyl-N-(2-(methylamino)ethyl))sulfamoyl)-1-(1,2,3,5,6,7-hexahydro-s-indacen-4-yl)urea, potassium salt] |
| < 5 | CCN(CC)CCN(C)S(=O)(=O)NC(=O)Nc1c2c(cc3c1CCC3)CCC2 [Example 53, 3-(N-(2-(Diethylamino)ethyl)-N-methyl)sulfamoyl)-1-(1,2,3,5,6,7-hexahydro-s-indacen-4-yl)urea, potassium salt] |
| < 1 | CN(C)CCN(CCc1ccccc1)S(=O)(=O)NC(=O)Nc1c2c(cc3c1CCC3)CCC2 [Example 13, 3-(N-(2-(Dimethylamino)ethyl)-N-phenethylsulfamoyl)-1-(1,2,3,5,6,7-hexahydro-s-indacen-4-yl)urea, potassium salt] |
| < 5 | CN(C)CC1CCCN1S(=O)(=O)NC(=O)Nc1c2c(cc3c1CCC3)CCC2 (centres unmarked) [Example 82, 2-((Dimethylamino)methyl)-N-((1,2,3,5,6,7-hexahydro-s-indacen-4-yl)carbamoyl)pyrrolidine-1-sulfonamide, potassium salt] |
| < 1 | CN(C)CCCCNS(=O)(=O)NC(=O)Nc1c2c(cc3c1CCC3)CCC2 [Example 48, 3-(N-(4-(Dimethylamino)butyl)sulfamoyl)-1-(1,2,3,5,6,7-hexahydro-s-indacen-4-yl)urea, potassium salt] |
| < 10 | Cc1nc(C(C)C)c(NC(=O)NS(=O)(=O)N(C)C2CCN(C)C2)n1-c1ccncc1 (centres unmarked) [Example 109, 1-(5-Isopropyl-2-methyl-3-(4-pyridyl)imidazol-4-yl)-3-(methyl-(1-methylpyrrolidin-3-yl)sulfamoyl)urea] |
| < 1 | COCCN(C)S(=O)(=O)NC(=O)Nc1c2c(cc3c1CCC3)CCC2 [Example 7, 3-Methyl-((2-Methoxyethyl)sulfamoyl)-1-(1,2,3,5,6,7-hexahydro-s-indacen-4-yl)urea, potassium salt] |
| < 5 | CC(CN(C)C)NS(=O)(=O)NC(=O)Nc1c2c(cc3c1CCC3)CCC2 (centres unmarked) [Example 16, 3-(N-(1-(Dimethylamino)propan-2-yl)sulfamoyl)-1-(1,2,3,5,6,7-hexahydro-s-indacen-4-yl)urea, potassium salt] |

| Compound | IC50 [µM] |
| --- | --- |
| CCN1[C@@H]2CC[C@H]1C[C@H](NS(=O)(=O)NC(=O)Nc1c3c(cc4c1CCC4)CCC3)C2 [Example 74, (1R,3s,5S)-8-Ethyl-8-azabicyclo[3.2.1]octan-3-(N-((1,2,3,5,6,7-hexahydro-s-indacen-4-yl)carbamoyl)-sulfonamide)] | < 5 |
| CCN(CC)[C@@H]1C[C@H]2CC[C@@H](C1)N2S(=O)(=O)NC(=O)Nc1c2c(cc3c1CCC3)CCC2 [Example 78, (1R,3s,5S)-3-(Diethylamino)-N-((1,2,3,5,6,7-hexahydro-s-indacen-4-yl)carbamoyl)-8-azabicyclo[3.2.1]octane-8-sulfonamide] | < 5 |
| CCN(CC)[C@H]1C[C@H]2CC[C@@H](C1)N2S(=O)(=O)NC(=O)Nc1c2c(cc3c1CCC3)CCC2 [Example 64, (1R,3r,5S)-3-(Diethylamino)-N-((1,2,3,5,6,7-hexahydro-s-indacen-4-yl)carbamoyl)-8-azabicyclo[3.2.1]octane-8-sulfonamide] | < 0.5 |
| O=C(Nc1c2c(cc3c1CCC3)CCC2)NS(=O)(=O)N1[C@@H]2CC[C@H]1C[C@@H](N1CCCC1)C2 [Example 70, (1R,3r,5S)—N-((1,2,3,5,6,7-Hexahydro-s-indacen-4-yl)carbamoyl)-3-(pyrrolidin-1-yl)-8-azabicyclo[3.2.1]octane-8-sulfonamide] | < 1 |
| CC(C)N1[C@@H]2CC[C@H]1C[C@H](NS(=O)(=O)NC(=O)Nc1c3c(cc4c1CCC4)CCC3)C2 [Example 63, (1R,3s,5S)-8-isopropyl-8-azabicyclo[3.2.1]octan-3-(N-((1,2,3,5,6,7-hexahydro-s-indacen-4-yl)carbamoyl)-sulfonamide)] | < 1 |
| CC(C)N1[C@@H]2CC[C@H]1C[C@@H](NS(=O)(=O)NC(=O)Nc1c3c(cc4c1CCC4)CCC3)C2 [Example 33, (1R,3r,5S)-8-Isopropyl-8-azabicyclo[3.2.1]octan-3-(N-((1,2,3,5,6,7-hexahydro-s-indacen-4-yl)carbamoyl)-sulfonamide)] | < 5 |
